This note sets out measurements from patent US11780843B2, “Compounds active towards nuclear receptors” (NUEVOLUTION A/S, priority 2020, dated 2023).

Where two headings read alike, the source gives them in different places.

Experiment [1] relates to IL-17A secretion in activated PBMCs. In words: IL-17A secretion in activated PBMCs. The settings on record: human PBMCs stimulated with CD3/CD28 Dynabeads for 48 h, absolute IC50. Format: cell-based. The source says:
Heparin-treated whole blood from healthy human volunteers was supplied from Hospital de Sant Pau (Barcelona) under the approval of the local ethical review board for human studies (Hospital de Sant Pau, Barcelona, Spain). Human peripheral blood mononuclear cells (PBMCs) were isolated from healthy human volunteers by density gradient centrifugation using the Ficoll-Paque (GE Healthcare). PBMCs were suspended in cell culture medium which consisted on RPMI 1640 medium (Sigma-Aldrich) containing 10% heat inactivated fetal bovine serum (Sigma-Aldrich), 2 mM L-Glutamine (Gibco), 20 mM Hepes (Gibco) and 100 U/mL penicillin (Sigma-Aldrich). Cells were seeded in 384-well plate (DiscoverX), at 40,000 cells per well and cultured 2 h at 37° C. and 5% CO2.
Dose-response curves with compounds were prepared using a 5-fold serial dilution (10 concentrations) in 100% DMSO and further diluted 100-fold in culture medium. Compound solutions (5 μL) were added to the plate containing cells (final DMSO concentration of 0.1%) and incubated for 30 min. Then, cells were stimulated with CD3/CD28 Dynabeads (ThermoFisher, at a bead-to-cell ratio of 1:1) for 48 h at 37° C. and 5% CO2.
IL-17A levels in supernatant were determined by immunoassay using hIL17A QBeads (Intellicyt) and by fluorescence analysis in iQue flow cytometer following the manufacturer's instructions. Inhibition of IL-17A secretion was calculated using the following formula: inhibition=100*[1−[(x−mean basal condition)/(mean top condition—mean basal condition)]]. Activated DMSO-treated cells were used as top condition and activated GNE09461 (10 μM)-treated cells as basal condition.

Experiment [2] concerns the target T1, RORγ ligand-binding domain (Homo sapiens, UniProt P51449).
T1 construct: Gal4 (galactose-responsive transcription factor); expressed in transfected cells; host or cells: HEK293, transient co-transfection
T1 sequence (P51449 269-508 limits assumed): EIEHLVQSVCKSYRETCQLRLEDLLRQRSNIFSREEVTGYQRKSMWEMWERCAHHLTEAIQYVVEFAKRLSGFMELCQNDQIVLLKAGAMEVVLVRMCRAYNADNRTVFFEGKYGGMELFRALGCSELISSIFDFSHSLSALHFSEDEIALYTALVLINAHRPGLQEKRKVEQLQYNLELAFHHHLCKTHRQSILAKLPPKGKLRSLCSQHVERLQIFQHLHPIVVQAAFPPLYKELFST
In words: RORγ Reporter Assay (Gal4). Format: cell-based. An outline of the steps:
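HEK293 cells transiently co-transfected with Gal4–RORγ LBD fusion and UAS-luciferase reporter, plated 2 h, then exposed to compound (0.1% DMSO final) for 24 h at 37 °C. Luminescence read; percent reduction vs vehicle fitted to dose-response curves.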

Where [3] appears, read: HEK293 cells, luciferase reporter, 24 h incubation, absolute IC50, read-out: IC50.

In the case of `NC(=O)CN1CC[C@@H](Cn2cc(F)c3c(N(Cc4ccc(C(F)(F)F)nc4)C4CC4)ncnc32)[C@H](O)C1` (racemic) [Example P6-15, rac-2-((3R,4R)-4-((4-(cyclopropyl((6-(trifluoromethyl)pyridin-3-yl)methyl)amino)-5-fluoro-7H-pyrrolo[2,3-d]pyrimidin-7-yl)methyl)-3-hydroxypiperidin-1-yl)acetamide], the IC50 in experiment [1] (Homo sapiens, PBMC, 48 h) was 18 nM; in experiment [2] (setting [3]) it was 10 nM.
The corresponding values for `NC(=O)CN1CC[C@@H](Cn2ccc3c(N(Cc4ccc(C(F)(F)F)cn4)C4CC4)ncnc32)[C@H](O)C1` (single isomer, unassigned) [Example P6-23-1] are 59 nM and 9.9 nM.
In the case of `CCN(Cc1ccc(C(F)(F)F)cc1F)c1ncnc2c1ccn2C[C@@]1(O)CCN(CC(N)=O)C[C@@H]1O` (single isomer, unassigned) [Example L5-3-1-1], the IC50 was determined as 9.8 nM in experiment [1] (Homo sapiens, PBMC, 48 h) and 3 nM in experiment [2] (setting [3]).
Take `NC(=O)C(CO)N1CC[C@@H](Cn2ccc3c(N(Cc4ccc(C(F)(F)F)cc4)C4CC4)ncnc32)[C@H](O)C1` (mixture of isomers) [Example P6-37, rac-2-((3R,4R)-4-((4-(Cyclopropyl(4-(trifluoromethyl)benzyl)amino)-7H-pyrrolo[2,3-d]pyrimidin-7-yl)methyl)-3-hydroxypiperidin-1-yl)-3-hydroxypropanamide]: the IC50 in experiment [1] (Homo sapiens, PBMC, 48 h) stood at 7 nM; in experiment [2] (setting [3]), 2 nM.
Take `NC(=O)CN1CC[C@@H](Cn2cc(F)c3c(N(Cc4ccc(C(F)(F)F)cn4)C4CC4)ncnc32)[C@H](O)C1` (racemic) [Example P6-18, rac-2-((3R,4R)-4-((4-(cyclopropyl((5-(trifluoromethyl)pyridin-2-yl)methyl)amino)-5-fluoro-7H-pyrrolo[2,3-d]pyrimidin-7-yl)methyl)-3-hydroxypiperidin-1-yl)acetamide]: the IC50 in experiment [1] (Homo sapiens, PBMC, 48 h) was 14 nM; in experiment [2] (setting [3]) it was 4.6 nM.
Turning to `NC(=O)CN1CC[C@](O)(Cn2ccc3c(N(Cc4ccc(-n5cccn5)cc4)C4CC4)ncnc32)[C@@H](O)C1` (single isomer, unassigned) [Example R5-2-2], the IC50 was found to be 7.4 nM in experiment [1] and 6.5 nM in experiment [2] (setting [3]).
For the compound `CCN(Cc1ccc(C(F)(F)F)cc1)c1ncnc2c1ccn2C[C@@H]1CCN(CC(N)=O)C[C@H]1O` (single isomer, unassigned) [Example P6-24-2], the figures for the half-maximal inhibitory concentration (IC50) in experiment [1] and in experiment [2] (setting [3]) were 170 nM and 9.1 nM, respectively.
As for `CC(C)N(Cc1ccc(C(F)(F)F)cc1)c1ncnc2c1ccn2C[C@@H]1CCN(CC(N)=O)C[C@H]1O` (racemic) [Example P6-25, rac-2-((3R,4R)-3-hydroxy-4-((4-(isopropyl(4-(trifluoromethyl)benzyl)amino)-7H-pyrrolo[2,3-d]pyrimidin-7-yl)methyl)piperidin-1-yl)acetamide], the IC50 in experiment [1] (Homo sapiens, PBMC, 48 h) is 35 nM; in experiment [2] (setting [3]) it was 15 nM.
As for `CCN(Cc1ccc(C(F)(F)F)cc1)c1ncnc2c1ccn2C[C@@]1(O)CCN(CC(N)=O)C[C@@H]1O` (single isomer, unassigned) [Example L5-2-1-1], the IC50 amounted to 2.7 nM in experiment [1] and 1.4 nM in experiment [2] (setting [3]).
`CCN(Cc1ccc(C(F)(F)F)cc1)c1ncnc2c1ccn2C[C@@H]1CCN(CC(N)=O)C[C@H]1O` (single isomer, unassigned) [Example P6-24-1]: the IC50 in experiment [1] was found to be 9.9 nM; in experiment [2] (setting [3]), 4.9 nM.
For the compound `NC(=O)CN1CC[C@@H](Cn2cc(F)c3c(N(Cc4ccc(C(F)(F)F)cc4)C4CC4)ncnc32)[C@H](O)C1` (single isomer, unassigned) [Example P6-14-2], the IC50 was found to be 1.7 nM in experiment [1] and 1 nM in experiment [2] (setting [3]).
Regarding `CCN(Cc1ccc(C(F)(F)F)cc1F)c1ncnc2c1ccn2C[C@@]1(O)CCN(CC(N)=O)C[C@@H]1O` (single isomer, unassigned) [Example L5-3-1-2], the IC50 came to 10 nM in experiment [1] and 4.4 nM in experiment [2] (setting [3]).
As to `CC(C)N(Cc1ccc(C(F)(F)F)cc1)c1ncnc2c1ccn2C[C@@H]1CCN(CC(N)=O)C[C@H]1O` (single isomer, unassigned) [Example P6-25-2], the IC50 in experiment [1] stood at 130 nM; in experiment [2] (setting [3]), 30 nM.
On to `NC(=O)CN1CC[C@@H](Cn2cnc3c(N(Cc4ccc(C(F)(F)F)cc4)C4CC4)ncnc32)[C@H](O)C1` (relative stereo) [P6-26″, rel-2-((3R,4R)-4-((6-(cyclopropyl(4-(trifluoromethyl)benzyl)amino)-9H-purin-9-yl)methyl)-3-hydroxypiperidin-1-yl)acetamide], for which the IC50 in experiment [1] (Homo sapiens, PBMC, 48 h) came to 21 nM; in experiment [2] (setting [3]) it was 5.1 nM.
`NC(=O)CN1CC[C@](O)(Cn2ccc3c(N(Cc4ccc(C(F)(F)F)cc4)C4CC4)ncnc32)[C@@H](O)C1` (single isomer, unassigned) [Example L5-1-1-2]: the results for the IC50 in experiment [1] and in experiment [2] (setting [3]) were 2.3 nM and 2 nM, respectively.
`NC(=O)CN1CC[C@@H](Cn2ccc3c(N(Cc4ccc(C(F)(F)F)cn4)C4CC4)ncnc32)[C@H](O)C1` (single isomer, unassigned) [Example P6-23-2]: the IC50 worked out at 98 nM in experiment [1] and 15 nM in experiment [2] (setting [3]).
On to `NC(=O)CN1CCC(Cn2cnc3c(N(Cc4ccc(C(F)(F)F)cc4)C4CC4)ncnc32)CC1` [Example P6-06, 2-(4-((6-(cyclopropyl(4-(trifluoromethyl)benzyl)amino)-9H-purin-9-yl)methyl)piperidin-1-yl)acetamide], for which the IC50 was 48 nM in experiment [1] (Homo sapiens, PBMC, 48 h) and 85 nM in experiment [2] (setting [3]).
For the compound `CCN(Cc1ccc(C(F)(F)F)cc1)c1ncnc2c1c(F)cn2C[C@@H]1CCN(CC(N)=O)C[C@H]1O` (racemic) [Example P6-21, rac-2-((3R,4R)-4-((4-(ethyl(4-(trifluoromethyl)benzyl)amino)-5-fluoro-7H-pyrrolo[2,3-d]pyrimidin-7-yl)methyl)-3-hydroxypiperidin-1-yl)acetamide], the IC50 was 11 nM in experiment [1] (Homo sapiens, PBMC, 48 h) and 6.6 nM in experiment [2] (setting [3]).
Take `NC(=O)CN1CC[C@@H](Cn2ccc3c(N(Cc4ccc(C(F)(F)F)cc4)C4CC4)ncnc32)[C@H](O)C1` (racemic) [Example P6-13, rac-2-((3R,4R)-4-((4-(cyclopropyl(4-(trifluoromethyl)benzyl)amino)-7H-pyrrolo[2,3-d]pyrimidin-7-yl)methyl)-3-hydroxypiperidin-1-yl)acetamide]: the IC50 stood at 1.5 nM in experiment [1] (Homo sapiens, PBMC, 48 h) and 0.9 nM in experiment [2] (setting [3]).
For `CC(C)N(Cc1ccc(C(F)(F)F)cc1)c1ncnc2c1c(F)cn2C[C@@H]1CCN(CC(N)=O)C[C@H]1O` (racemic) [Example P6-19, rac-2-((3R,4R)-4-((5-fluoro-4-(isopropyl(4-(trifluoromethyl)benzyl)amino)-7H-pyrrolo[2,3-d]pyrimidin-7-yl)methyl)-3-hydroxypiperidin-1-yl)acetamide], the IC50 in experiment [1] (Homo sapiens, PBMC, 48 h) is 15 nM; in experiment [2] (setting [3]), 9.8 nM.
`NC(=O)CN1CC[C@](O)(Cn2ccc3c(N(Cc4ccc(-n5cccn5)cc4)C4CC4)ncnc32)[C@@H](O)C1` (single isomer, unassigned) [Example R5-2-1]: the values for the IC50 in experiment [1] and in experiment [2] (setting [3]) were 29 nM and 4.9 nM, respectively.
`NC(=O)CN1CC[C@@H](Cn2cc(F)c3c(N(Cc4ccc(C(F)(F)F)cc4)C4CC4)ncnc32)[C@H](O)C1` (racemic) [Example P6-14, rac-2-((3R,4R)-4-((4-(cyclopropyl(4-(trifluoromethyl)benzyl)amino)-5-fluoro-7H-pyrrolo[2,3-d]pyrimidin-7-yl)methyl)-3-hydroxypiperidin-1-yl)acetamide]: the IC50 turned out to be 2.2 nM in experiment [1] (Homo sapiens, PBMC, 48 h) and 1 nM in experiment [2] (setting [3]).
Consider `NC(=O)CN1CC[C@@H](Cn2ccc3c(N(Cc4ccc(C(F)(F)F)cc4)C4CC4)ncnc32)[C@H](O)C1` (single isomer, unassigned) [Example P6-13-1], for which the IC50 in experiment [1] (Homo sapiens, PBMC, 48 h) is 1.1 nM; in experiment [2] (setting [3]), 1.6 nM; in experiment [2] (stated as a bound only (Tables 5 a, 6, 7), read-out: Gal4 assay IC50), less than 100 nM.
Regarding `NC(=O)CN1CC[C@@H](Cn2ccc3c(N(Cc4ccc(C(F)(F)F)cn4)C4CC4)ncnc32)[C@H](O)C1` (racemic) [Example P6-23, rac-2-((3R,4R)-4-((4-(cyclopropyl((5-(trifluoromethyl)pyridin-2-yl)methyl)amino)-7H-pyrrolo[2,3-d]pyrimidin-7-yl)methyl)-3-hydroxypiperidin-1-yl)acetamide], the concentration for half-maximal inhibition (IC50) came out at 12 nM in experiment [1] (Homo sapiens, PBMC, 48 h) and 5.3 nM in experiment [2] (setting [3]).
